Reference: patent publication US20240174762A1, “METHODS, COMPOSITIONS AND USES FOR TARGETING SEMA7A IN THE DIAGNOSIS AND TREATMENT OF HEALTH CONDITIONS” (THE REGENTS OF THE UNIVERSITY OF COLORADO, A BODY CORPORATE, priority 2021, published 2024)

Tested on: human MCF7 model of ER+ breast cancer
Assay: ER+ SEMA7A expressing tumors, human MCF7 model
Type: in vivo, mice
Settings: FIG. 11
Text: FIGS. 11A-11H represents various graphs and images of tumor analysis and treatment according to various aspects of the disclosure. (A) represents analysis for relapse free survival of breast cancer patients treated with endocrine therapy assessed for SEMA7A levels; (B) MCF7 tumor cell growth in mice treated with endocrine therapy (e.g., Fulvestrant); (C) Lung metastasis of MCF7 in mice from 11B; (D) is a representative image illustrating BCL2 expression in SEMA7A OE cells; (E) MCF7 tumor growth in mice treated with endocrine therapy and a Bcl-2 inhibitor (e.g., Venetoclax) indicated by the arrows; (F) Lung metastasis in mice from […] above; (G) illustrates clonogenic growth of MCF7 EV or SEMA7A OE cells treated with 5 μM SU6656; clonogenic data are normalized to vehicle controls; and (H) represents clonogenic growth of MCF7 EV or SEMA7A OE cells treated with a composition according to various aspects of the disclosure.
In another exemplary method, ER+SEMA7A expressing tumors are resistant to anti-estrogen-based therapy (Fulvestrant), anti-CDK4/6 therapy (Palbociclib), and chemotherapy but are sensitive to inhibition of cell survival pathways. […]

C[C@]12CC[C@@H]3c4ccc(O)cc4C[C@@H](CCCCCCCCC[S+]([O-])CCCC(F)(F)C(F)(F)F)[C@H]3[C@@H]1CC[C@@H]2O (stereo partly shown) [Fulvestrant]
response of ER+SEMA7A expressing tumors to therapy: resistant
